Test results from ChEMBL document CHEMBL1201862, “PubChem BioAssay data set” (2004).
Calls of active or inactive are those of the source. Cut-off read from the data, not from the text of the source, for most assays here: actives have a measured EC50 and inactives only a lower limit.

Key:
[1] = NIH-3T3 fibroblast cytotoxicity, dose response, cytotoxicity control, cell-based, fluorescence, Alamar Blue, secondary assay (AID 2327); assay type: functional;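 note: NIH-3T3 mouse fibroblasts cultured with fluconazole at 8 µg/mL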
[2] = cells; assay type: functional, cell-based
[3] = C. albicans growth with fluconazole, confirmation, fluorescence, retest (AID 2467); assay type: functional, cell-based
[4] = inhibitors of intracellular T. cruzi replication, confirmation, NIH3T3 host cells, beta-gal luminescence (AID 2044); assay type: functional, cell-based;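 note: intracellular parasites grown in NIH/3T3 mouse fibroblasts as host cells; luminescent beta-galactosidase reporter signal from transgenic T. cruzi replicating inside host cells; inhibitors lower the luminescence signal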
[5] = cells; assay type: functional, cell-based; remark: listed apart in the source
[6] = cytotoxicity toward NIH3T3 fibroblasts, dose response, counter-screen, cell-based, ATP luminescence, mouse fibroblasts (AID 2010); assay type: functional;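 note: cells exposed to compound for about 90 hours before reading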
[7] = cytotoxicity in HEK-293T cells, dose response, cytotoxicity control for TCR NF-kB inhibitor project, luminescence, T-cell screen hits (AID 489026); assay type: functional, cell-based;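 note: cells exposed to compound about 14 hours before the viability readout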
[8] = target: Heat shock protein HSP 90-alpha (Homo sapiens, UniProt P07900); assay type: functional, organism-based
[9] = test system: INS1; experiment: beta cell apoptosis inhibitors, cytokine rescue, dose response, luminescence, retest (AID 449756); assay type: functional, cell-based; conditions: Rattus norvegicus;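 note: cell death triggered by IL-1 beta plus TNF-alpha plus IFN-gamma mixture; protective hits raise ATP signal compared with cytokine alone wells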
[10] = test system: HEK293; experiment: NOD1 signaling inhibitors, primary screen, cell-based, luminescence, uHTS (AID 1578); assay type: functional; conditions: Homo sapiens
[11] = test system: Streptococcus sp. 'group A'; experiment: growth inhibition of control SK(-) GAS strain, dose response, counter-screen for streptokinase expression inhibitor project, luminescence, kanamycin, BacTiterGlo, confirmation (AID 1900); assay type: functional, organism-based
[12] = test system: HEK293; experiment: cells; assay type: functional, cell-based; conditions: Homo sapiens
[13] = target: T1, Streptokinase A (Streptococcus pyogenes serotype M1, UniProt P10520); experiment: S. pyogenes streptokinase expression inhibitors, potency, dose response, plasminogen activation absorbance, OD405 (AID 1914); assay type: functional, Streptococcus pyogenes M1 GAS;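 note: secreted streptokinase activity via plasminogen activation per viability signal from cell pellet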
T1 sequence (P10520 whole entry): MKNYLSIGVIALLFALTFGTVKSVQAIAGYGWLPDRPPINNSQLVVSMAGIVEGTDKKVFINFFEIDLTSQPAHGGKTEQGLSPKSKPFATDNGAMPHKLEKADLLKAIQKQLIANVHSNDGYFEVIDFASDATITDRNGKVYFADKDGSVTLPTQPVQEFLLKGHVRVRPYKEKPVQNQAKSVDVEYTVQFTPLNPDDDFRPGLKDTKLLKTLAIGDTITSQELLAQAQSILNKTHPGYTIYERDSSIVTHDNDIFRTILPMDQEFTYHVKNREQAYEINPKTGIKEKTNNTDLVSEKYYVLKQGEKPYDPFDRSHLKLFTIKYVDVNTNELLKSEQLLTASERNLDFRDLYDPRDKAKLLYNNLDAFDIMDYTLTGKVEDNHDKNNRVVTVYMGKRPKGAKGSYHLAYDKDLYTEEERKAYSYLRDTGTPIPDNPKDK

[14] = test system: HEK293; experiment: cells; assay type: functional, cell-based; conditions: Homo sapiens; remark: listed apart in the source
[15] = test system: HEK293; experiment: NOD2 signaling inhibitors in MDP-stimulated cells, cell-based, uHTS, luminescence (AID 2001); assay type: functional; conditions: Homo sapiens
[16] = test system: Streptococcus; experiment: Group A Streptococcus viability loss, dose response, counter-screen for streptokinase expression inhibitor project, luminescence, BacTiterGlo (AID 1915); assay type: functional, organism-based;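 note: potency for reduction of bacterial viability or growth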
[17] = target: CAAX prenyl protease 2 (Saccharomyces cerevisiae S288c, UniProt Q03530); assay type: biochemical
[18] = target: CAAX prenyl protease 2 (Homo sapiens, UniProt Q9Y256); experiment: human Rce1 protease inhibitors, dose response, biochemical, yeast membranes, quenched-peptide fluorescence, cherry-pick (AID 588849)
[19] = target: DNA repair protein RAD52 homolog (Homo sapiens, UniProt P43351); assay type: functional, biochemical
[20] = cells
[21] = inhibitors of firefly luciferase expression or activity, dose response, H4 neuroglioma cells, luminescence (AID 1990); assay type: functional, cell-based
[22] = test system: BJ; experiment: cytotoxicity toward BJ-TERT fibroblasts, dose response, cell-based, RAS-independent, luminescence (AID 1933); assay type: functional; conditions: Homo sapiens
[23] = Luminescence Cell-Based Dose Response HTS to Identify Inhibitors of 5'UTR Stem-Loop Driven Prion Protein mRNA Translation in H4 Neuroglioblastoma Cells. [Related pubchem assays: 1827 (Project Summary), 1813 (Primary HTS)]; assay type: functional
[24] = inhibitors of SNCA 5'UTR-driven reporter translation, confirmation, H4 neuroglioma cells, luminescence (AID 1988); assay type: functional, cell-based
[25] = test system: BJ; experiment: cells; assay type: functional, cell-based; conditions: Homo sapiens
[26] = target: NS3 (Hepatitis C virus, UniProt A3EZJ3); experiment: PubChem AID 2173; design: species or system Hepacivirus hominis
[27] = test system: BJ; experiment: cytotoxicity toward BJ-TERT-LT-ST fibroblasts, dose response, cell-based, RAS-independent, luminescence (AID 1935); assay type: functional; conditions: Homo sapiens;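 note: BJ fibroblasts immortalized with TERT plus LT and ST oncogenes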
[28] = cytotoxicity toward DRD oncogenic fibroblasts, dose response, cell-based, non-viral oncogenic, luminescence (AID 1934); assay type: functional; conditions: Homo sapiens
[29] = target: Hepatocyte nuclear factor 4-alpha (Homo sapiens, UniProt P41235); assay type: functional, cell-based;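 note: biochemical luminescence-based dose-response counterscreen measuring inhibition of HNF4 dimerization, run alongside a screen for blockers of ABHD5–perilipin-5 interaction; split luciferase complementation of HNF4 fusion proteins in cell lysate measuring dimerization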
[30] = target: Cysteine protease ATG4B (Homo sapiens, UniProt Q9Y4P1); assay type: functional;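 note: Fluorescence-based dose-response confirmation assay measuring inhibition of ATG4B activity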
[31] = target: Phospholipase A2 (Homo sapiens, UniProt P04054); assay type: functional;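 note: confirmatory dose-response counterscreen on phospholipase A2, testing hits that came from an ultra-high-throughput screen for ATG4B inhibitors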
[32] = test system: Vero; experiment: cells; assay type: functional; conditions: Chlorocebus sabaeus
[33] = target: CAAX prenyl protease 1 (Saccharomyces cerevisiae S288c, UniProt P47154); experiment: Ste24 protease inhibitors, dose response, biochemical, S. cerevisiae, plate reader, cherry-pick (AID 488815)
[34] = target: Serine/threonine-protein phosphatase (Candida dubliniensis (strain CD36 / CBS 7987 / NCPF 3949 / NRRLY-17841) (Yeast), UniProt B9W6M3); experiment: calcineurin pathway inhibitors in yeast reporter, dose response, S. cerevisiae, CDRE-lacZ, luminescence, secondary (AID 2388); assay type: functional, cell-based;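 note: yeast reporter cells carrying a calcineurin-responsive lacZ construct stimulated with calcium chloride; luminescent beta-galactosidase reporter signal in whole cells rather than isolated phosphatase activity; potency for inhibition where a drop in reporter signal means calcineurin blockade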
[35] = Luminescence Cell-Based Dose Retest to Confirm Inhibitors of Cancer Stem Cells. [Related pubchem assays (depositor defined):AID2717, AID2721]; assay type: functional; conditions: Homo sapiens
[36] = target: ATP-dependent molecular chaperone HSP82 (Candida albicans (strain WO-1) (Yeast), UniProt C4YTQ8); experiment: loss of DOC-induced GRE-beta-galactosidase reporter signal, dose response, Hsp90 inhibitor project, S. cerevisiae, luminescence (AID 2400); assay type: functional, cell-based;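 note: beta-galactosidase luminescence from glucocorticoid response element reporter as proxy for Hsp90 function; inhibitor potency where signal loss means Hsp90 inhibition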
ATP-dependent molecular chaperone HSP82, sequence (C4YTQ8 whole entry): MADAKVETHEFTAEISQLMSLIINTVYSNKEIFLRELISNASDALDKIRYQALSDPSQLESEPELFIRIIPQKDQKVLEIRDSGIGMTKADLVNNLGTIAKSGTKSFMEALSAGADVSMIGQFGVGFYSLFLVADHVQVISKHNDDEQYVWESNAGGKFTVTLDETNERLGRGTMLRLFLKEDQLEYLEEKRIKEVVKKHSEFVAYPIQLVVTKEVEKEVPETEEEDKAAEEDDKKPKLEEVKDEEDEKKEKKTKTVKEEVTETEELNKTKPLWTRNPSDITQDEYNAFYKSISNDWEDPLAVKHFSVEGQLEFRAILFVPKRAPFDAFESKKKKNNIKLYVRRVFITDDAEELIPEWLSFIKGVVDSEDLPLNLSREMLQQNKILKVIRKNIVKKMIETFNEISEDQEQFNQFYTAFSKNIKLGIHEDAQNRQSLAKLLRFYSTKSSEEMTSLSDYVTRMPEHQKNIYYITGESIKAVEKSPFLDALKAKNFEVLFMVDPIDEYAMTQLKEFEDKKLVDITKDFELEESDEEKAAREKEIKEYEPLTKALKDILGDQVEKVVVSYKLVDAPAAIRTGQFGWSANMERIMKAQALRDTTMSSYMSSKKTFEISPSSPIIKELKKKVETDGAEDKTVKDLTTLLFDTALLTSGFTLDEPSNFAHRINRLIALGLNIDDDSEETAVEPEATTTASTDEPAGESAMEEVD

CAAX prenyl protease 2 (Homo sapiens, UniProt Q9Y256), sequence (Q9Y256 whole entry): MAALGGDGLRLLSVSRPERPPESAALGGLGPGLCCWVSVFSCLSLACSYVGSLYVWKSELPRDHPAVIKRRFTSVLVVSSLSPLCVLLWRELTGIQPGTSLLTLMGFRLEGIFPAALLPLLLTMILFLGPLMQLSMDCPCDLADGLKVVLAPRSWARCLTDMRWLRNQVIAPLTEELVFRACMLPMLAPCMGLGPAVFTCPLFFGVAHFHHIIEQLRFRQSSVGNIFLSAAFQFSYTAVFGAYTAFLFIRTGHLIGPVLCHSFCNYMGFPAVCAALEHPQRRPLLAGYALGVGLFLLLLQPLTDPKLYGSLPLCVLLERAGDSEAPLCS
CAAX prenyl protease 2 (Saccharomyces cerevisiae S288c, UniProt Q03530), sequence (Q03530 whole entry): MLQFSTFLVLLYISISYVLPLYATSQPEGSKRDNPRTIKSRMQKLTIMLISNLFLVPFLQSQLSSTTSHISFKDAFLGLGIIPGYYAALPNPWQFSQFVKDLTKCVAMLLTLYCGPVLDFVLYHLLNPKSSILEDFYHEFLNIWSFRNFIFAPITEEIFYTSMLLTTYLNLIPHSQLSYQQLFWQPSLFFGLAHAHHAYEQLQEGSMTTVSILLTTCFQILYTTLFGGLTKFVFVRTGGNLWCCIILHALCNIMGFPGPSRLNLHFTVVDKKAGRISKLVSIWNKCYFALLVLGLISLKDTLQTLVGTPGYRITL
Cysteine protease ATG4B, sequence (Q9Y4P1 whole entry): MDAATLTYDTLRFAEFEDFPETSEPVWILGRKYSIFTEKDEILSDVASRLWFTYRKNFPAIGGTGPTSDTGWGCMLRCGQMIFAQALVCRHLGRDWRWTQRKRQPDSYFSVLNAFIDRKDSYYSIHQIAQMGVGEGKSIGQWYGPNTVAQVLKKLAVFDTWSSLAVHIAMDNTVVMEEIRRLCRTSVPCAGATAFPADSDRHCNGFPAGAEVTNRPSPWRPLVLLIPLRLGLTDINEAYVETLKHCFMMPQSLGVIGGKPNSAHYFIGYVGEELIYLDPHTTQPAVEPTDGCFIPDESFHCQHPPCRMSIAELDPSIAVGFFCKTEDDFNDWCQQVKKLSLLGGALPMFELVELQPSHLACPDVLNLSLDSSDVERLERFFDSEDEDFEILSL
Phospholipase A2, sequence (P04054 whole entry): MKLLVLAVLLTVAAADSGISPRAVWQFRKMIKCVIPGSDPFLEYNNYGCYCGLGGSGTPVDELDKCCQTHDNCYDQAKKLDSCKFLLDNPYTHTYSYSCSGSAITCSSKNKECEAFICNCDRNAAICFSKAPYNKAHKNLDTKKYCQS
Serine/threonine-protein phosphatase, sequence (B9W6M3 whole entry): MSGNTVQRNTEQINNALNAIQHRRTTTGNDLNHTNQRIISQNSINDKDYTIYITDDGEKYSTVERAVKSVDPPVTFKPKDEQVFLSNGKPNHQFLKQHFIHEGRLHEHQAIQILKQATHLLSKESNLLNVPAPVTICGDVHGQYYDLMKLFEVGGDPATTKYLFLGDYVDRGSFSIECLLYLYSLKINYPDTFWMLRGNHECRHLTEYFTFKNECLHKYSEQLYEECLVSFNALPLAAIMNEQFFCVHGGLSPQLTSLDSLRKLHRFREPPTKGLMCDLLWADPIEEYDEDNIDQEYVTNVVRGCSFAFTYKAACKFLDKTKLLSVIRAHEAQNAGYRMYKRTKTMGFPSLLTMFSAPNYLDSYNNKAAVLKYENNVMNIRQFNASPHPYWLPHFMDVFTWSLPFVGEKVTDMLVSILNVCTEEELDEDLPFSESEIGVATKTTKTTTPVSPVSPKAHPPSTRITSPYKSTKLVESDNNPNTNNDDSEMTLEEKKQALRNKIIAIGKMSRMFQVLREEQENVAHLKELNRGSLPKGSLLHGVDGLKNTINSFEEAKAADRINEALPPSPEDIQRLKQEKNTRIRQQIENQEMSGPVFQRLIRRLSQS
Hepatocyte nuclear factor 4-alpha, sequence (P41235 whole entry, the tested form may be a part): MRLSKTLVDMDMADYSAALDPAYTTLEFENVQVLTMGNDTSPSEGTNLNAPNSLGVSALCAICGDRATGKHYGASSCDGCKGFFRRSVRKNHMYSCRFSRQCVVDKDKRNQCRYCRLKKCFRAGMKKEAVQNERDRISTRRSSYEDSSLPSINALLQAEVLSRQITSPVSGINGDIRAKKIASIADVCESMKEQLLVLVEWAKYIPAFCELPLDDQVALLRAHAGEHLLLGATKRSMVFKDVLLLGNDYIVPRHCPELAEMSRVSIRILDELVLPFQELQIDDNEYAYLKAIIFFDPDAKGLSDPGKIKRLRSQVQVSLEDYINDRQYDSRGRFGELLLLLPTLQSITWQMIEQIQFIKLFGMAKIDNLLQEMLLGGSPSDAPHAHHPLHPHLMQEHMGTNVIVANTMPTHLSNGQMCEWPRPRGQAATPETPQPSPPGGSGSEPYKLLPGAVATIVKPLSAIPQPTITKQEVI
NS3, sequence (A3EZJ3 whole entry): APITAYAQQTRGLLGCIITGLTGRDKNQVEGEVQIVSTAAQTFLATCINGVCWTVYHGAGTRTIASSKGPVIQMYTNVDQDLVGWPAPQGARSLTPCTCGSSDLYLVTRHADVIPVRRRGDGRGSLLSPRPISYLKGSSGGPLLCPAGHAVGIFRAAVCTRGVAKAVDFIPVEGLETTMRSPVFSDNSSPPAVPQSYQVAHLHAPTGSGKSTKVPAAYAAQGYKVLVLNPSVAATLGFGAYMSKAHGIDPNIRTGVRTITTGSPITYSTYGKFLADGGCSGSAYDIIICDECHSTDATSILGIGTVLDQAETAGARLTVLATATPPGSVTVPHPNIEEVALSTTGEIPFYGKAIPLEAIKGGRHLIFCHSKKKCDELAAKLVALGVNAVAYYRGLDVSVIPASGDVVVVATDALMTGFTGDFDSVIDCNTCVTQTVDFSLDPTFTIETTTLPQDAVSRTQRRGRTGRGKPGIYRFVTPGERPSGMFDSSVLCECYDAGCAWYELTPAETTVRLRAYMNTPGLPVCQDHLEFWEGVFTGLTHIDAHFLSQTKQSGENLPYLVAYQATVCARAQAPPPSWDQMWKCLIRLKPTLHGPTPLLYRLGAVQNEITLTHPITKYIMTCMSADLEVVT
DNA repair protein RAD52 homolog, sequence (P43351 whole entry): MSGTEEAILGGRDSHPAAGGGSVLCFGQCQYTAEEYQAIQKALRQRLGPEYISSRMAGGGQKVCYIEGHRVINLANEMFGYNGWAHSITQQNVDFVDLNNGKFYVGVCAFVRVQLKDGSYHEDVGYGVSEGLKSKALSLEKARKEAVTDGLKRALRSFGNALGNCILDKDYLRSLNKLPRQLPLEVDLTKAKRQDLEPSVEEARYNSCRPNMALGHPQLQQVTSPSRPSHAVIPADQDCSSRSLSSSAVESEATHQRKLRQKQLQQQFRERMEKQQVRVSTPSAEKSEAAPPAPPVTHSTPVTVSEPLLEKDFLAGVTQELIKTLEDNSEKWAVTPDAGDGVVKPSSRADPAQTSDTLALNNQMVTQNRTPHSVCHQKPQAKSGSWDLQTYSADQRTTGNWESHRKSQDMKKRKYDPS
CAAX prenyl protease 1, sequence (P47154 whole entry): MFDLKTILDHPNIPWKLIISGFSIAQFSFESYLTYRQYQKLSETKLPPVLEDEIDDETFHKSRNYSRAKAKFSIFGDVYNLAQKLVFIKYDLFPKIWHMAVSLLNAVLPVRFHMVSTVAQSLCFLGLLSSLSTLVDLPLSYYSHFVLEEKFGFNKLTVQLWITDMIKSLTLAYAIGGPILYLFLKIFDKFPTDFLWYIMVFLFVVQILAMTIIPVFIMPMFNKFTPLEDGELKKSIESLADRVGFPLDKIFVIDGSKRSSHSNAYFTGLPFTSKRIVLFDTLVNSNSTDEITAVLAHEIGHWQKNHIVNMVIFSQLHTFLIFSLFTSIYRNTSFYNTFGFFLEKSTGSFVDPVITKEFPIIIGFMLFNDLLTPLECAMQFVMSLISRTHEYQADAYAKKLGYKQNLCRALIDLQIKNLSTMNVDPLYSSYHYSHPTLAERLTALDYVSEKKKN

For CCC(=O)NC(c1cccs1)c1ccc2cccnc2c1O (stereo unspecified), the EC50 [1] was 3.59 µM (active), the EC50 [2] was 8.02 µM (active) and the EC50 [3] was 1.39 µM (active). The EC50 [4] was 480 nM (active), the EC50 [5] was > 350 µM (not active) and the EC50 [6] was 1.48 µM (active). For the same molecule, the IC50 [7] was > 80 µM (inactive), the AC50 [8] was 7.9 µM (active) and the AC50 [9] was 860 nM (active).

In the case of CCC(C)(C)c1ccc(OCCCC[n+]2cccc(C)c2)c(C(C)(C)CC)c1, the EC50 [10] is reported as 8.28 µM (active), the EC50 [11] is reported as 6.58 µM (active) and the IC50 [12] is reported as 4.11 µM (active). For the same molecule, the EC50 [13] was 14.1 µM (active), the IC50 [14] was 7.99 µM (active) and the IC50 [15] was 3.36 µM (active). For the same molecule, the EC50 [4] was < 100 nM (active), the EC50 [6] was > 30 µM (not active) and the EC50 [16] was 14.9 µM (active). For the same molecule, the AC50 [17] was 10.5 µM (active), the AC50 [18] was 22 µM (active) and the AC50 [19] was 7.32 µM (active). The EC50 [20] was 128 nM (active).

In the case of Cc1ccc(C)c(/C=C/C(=O)c2ccccc(=O)c2O)c1, the EC50 [1] is reported as > 150 µM (inactive), the EC50 [21] is reported as 13.9 µM (active) and the EC50 [11] is reported as 1.41 µM (active). The EC50 [22] was 17.2 µM (inconclusive), the EC50 [23] was > 120 µM (not active) and the EC50 [24] was 12.7 µM (active). The EC50 [25] was 14.4 µM (active), the EC50 [3] was 1.47 µM (active) and the IC50 [26] was 2.52 µM (active). For the same molecule, the EC50 [4] was 2290 nM (active), the EC50 [6] was 8.18 µM (active) and the EC50 [27] was > 150 µM (not active). For the same molecule, the EC50 [28] was 56.8 µM (inconclusive), the EC50 [16] was 5 µM (active) and the AC50 [8] was 2.42 µM (active). The IC50 [29] was 6.56 µM (active).

In the case of CCOC(=O)c1c(C)[nH]c(C(=O)COC(=O)COc2ccccc2C=O)c1C, the IC50 [30] is reported as 10.5 µM (active) and the IC50 [31] is reported as 9.64 µM (active).

With CCOc1ccc(Oc2c(/C=N/NC(=O)COc3ccccc3OC)c(C)nn2-c2ccccc2)cc1 the CC50 [32] was > 25 µM (active).

With CNC(=S)N/N=C/c1cn(Cc2c(F)cccc2Cl)c2ccccc12 the AC50 [17] was 0.818 µM (active), the AC50 [33] was 7.58 µM (active) and the AC50 [18] was 16 µM (active).

In the case of Cc1cccc(C(=O)NNC2=C(C(=O)C(F)(F)F)CCC2)c1O, the EC50 [1] is reported as > 160 µM (inactive), the EC50 [3] is reported as 0.53 µM (active) and the EC50 [34] is reported as > 180 µM (inactive). The AC50 [35] was 3.16 µM (active) and the EC50 [36] was 35.6 µM (active).

In the case of CCOC(=O)C(C)Sc1nc2ccccc2c(=O)n1CC1CCCCC1 (stereo unspecified), the IC50 [30] is reported as 2.36 µM (active) and the IC50 [31] is reported as 2.05 µM (active).
